Target: T1, LRPPRC (Leucine-rich pentatricopeptide repeat-containing protein) (Homo sapiens, UniProt P42704)
T1 construct: GST fusion)
Assay: Intrinsic fluorescence quenching titration of purified LRPPRCΔ[…]; confirmed by BLI (KD […]) and CETSA in A549 and H1299 cells
Type: binding

T1 sequence (P42704 1121-1394): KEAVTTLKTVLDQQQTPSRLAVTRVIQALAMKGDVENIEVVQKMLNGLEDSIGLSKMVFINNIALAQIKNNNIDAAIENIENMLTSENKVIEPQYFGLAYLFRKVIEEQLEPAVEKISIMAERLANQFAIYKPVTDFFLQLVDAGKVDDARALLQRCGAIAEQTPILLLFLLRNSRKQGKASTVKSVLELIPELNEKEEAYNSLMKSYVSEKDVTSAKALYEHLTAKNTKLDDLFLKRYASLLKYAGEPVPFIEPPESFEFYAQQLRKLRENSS

Structure (SMILES): C[C@@]1(C(=O)O)CC[C@]2(C)CC[C@]3(C)C4=CC(=O)c5c(cc(O)c(O)c5C=O)[C@]4(C)CC[C@@]3(C)[C@@H]2C1 [T-96, Demethylzeylasteral]
- Kd: 21.4 µM
